Literature values in patent US20240009323A1, “METHODS OF TREATING COLON CANCER USING NANOPARTICLE MTOR INHIBITOR COMBINATION THERAPY” (Abraxis BioScience, LLC, priority 2017, published 2024).

Legend:
[1] = in vivo

COc1ccc(COc2cc3oc(=O)c4cc(C(C)O)ccc4c3cc2OC)cc1 (centres unmarked) [Palomid 529]
affinity for ABCB1/ABCG2 (ABCB1/ABCG2): lacks affinity
brain penetration [1]: good brain penetration
